According to publication PMC6095608 (PLoS ONE, 2018):

How the values were obtained:
[1] = parameters: method as in earlier work; details: clinical; lamivudine 150 mg twice daily with efavirenz 600 mg once daily; cited from earlier work
[2] = Efavirenz plasma concentration in patients (literature); assay type: in vivo, human; details: calculated from average plasma concentration and unbound percentage
[3] = biological target: T1, OCT2 (Homo sapiens, UniProt O15244); assay: Inhibition of net [14C]-metformin uptake in MDCK-OCT2 cells; assay type: cell-based; details: 50 μM metformin, 5 min, pH 7.4, efavirenz 0.01–50 μM, read-out: IC50, inhibition of net OCT2-mediated [14C]-metformin uptake
T1 construct: expressed in transfected cells; host or cells: MDCKII (MDCK-OCT2)
T1 sequence (O15244 1-555): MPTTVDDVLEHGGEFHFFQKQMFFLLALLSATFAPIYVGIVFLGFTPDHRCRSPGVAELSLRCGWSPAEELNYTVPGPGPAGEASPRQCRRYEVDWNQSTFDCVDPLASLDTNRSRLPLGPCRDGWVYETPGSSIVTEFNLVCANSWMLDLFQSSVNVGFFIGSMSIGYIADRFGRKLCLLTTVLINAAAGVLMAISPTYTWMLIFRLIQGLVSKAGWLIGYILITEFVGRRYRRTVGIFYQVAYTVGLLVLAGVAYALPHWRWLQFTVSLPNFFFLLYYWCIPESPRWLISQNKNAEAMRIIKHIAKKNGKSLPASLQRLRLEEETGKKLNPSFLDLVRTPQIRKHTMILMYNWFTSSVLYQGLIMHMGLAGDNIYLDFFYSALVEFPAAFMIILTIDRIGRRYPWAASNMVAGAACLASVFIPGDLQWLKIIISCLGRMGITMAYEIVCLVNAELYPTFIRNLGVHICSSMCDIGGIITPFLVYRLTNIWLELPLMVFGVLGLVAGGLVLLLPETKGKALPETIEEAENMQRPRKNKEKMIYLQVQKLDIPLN
Protocol: (§1) The singly-transfected OCT1, OCT2, MATE1 or control MDCK cells were seeded on 12-well plates at a density of 0.5 x 10^6 cells per well and cultivated in standard cultivation medium MEM (Gibco) + 10% FBS. Forty-eight hours after seeding, uptake experiments with radiolabelled metformin were performed. Cells were washed with 500 μl pre-warmed HBSS buffer of pH 7.4 (for OCTs) or 8.0 (for MATE1). Solutions of [^14C]-metformin (50 μM) in HBSS buffer of pH 7.4 or 8.0 with or without efavirenz were then added, and the resulting mixtures were left to stand for an accumulation period of 5 minutes. […] After the accumulation period, the solutions were aspirated and the cells were washed three times with 500 μl ice-cold HBSS buffer of pH 7.4 or 8.0 before being lysed with 0.02% sodium dodecyl sulphate (SDS). The intracellular accumulation of radioactivity was detected using a liquid scintillation counter (Tri-Carb 2910 TR Perkin Elmer), and protein concentrations in the cell lysates were measured by the BCA protein assay. Net transporter-mediated uptake was obtained by subtracting the accumulation of metformin in vector control cells from that in drug transporter-overexpressing cells.
(§2) A p value of ≤ 0.05 was considered statistically significant. […]

[4] = biological target: T2, MATE1 (Homo sapiens, UniProt Q96FL8); assay: Inhibition of net [14C]-metformin uptake in MDCK-MATE1 cells; assay type: cell-based; details: 50 μM metformin, 5 min, pH 8.0, efavirenz 0.01–50 μM, read-out: IC50, inhibition of net MATE1-mediated [14C]-metformin uptake
T2 construct: expressed in transfected cells; host or cells: MDCKII (MDCK-MATE1)
Protocol: as §1, §2

[5] = test system: parental MDCK cell line; assay: Calcein efflux assay in parental MDCK cells; assay type: cell-based, canine; details: calcein AM 0.25 μM, efavirenz 0.01–50 μM
Protocol: ABC transporter-expressing MDCK cells were seeded in 96-well plates at a density of 25 x 10^3 cells per well and cultivated in DMEM medium supplemented with 10% FBS. […] Intracellular fluorescence was then measured using excitation and emission wavelengths of 350 nm and 465 nm, respectively. […] Calcein fluorescence was measured using excitation and emission wavelengths of 496 nm and 516 nm, respectively.

[6] = biological target: T1, OCT2; assay: Transcellular transport assay across MDCK-OCT2 monolayers; assay type: cell-based; details: 10 μM efavirenz, 2 h
Protocol: (§3) Transport experiments employing polarized monolayers of MDCK-OCT1, MDCK-OCT2, or MDCK-MATE1 cell lines as well as doubly transfected MDCK-OCT1-MATE1 or MDCK-OCT2-MATE1 lines and the non-transfected parental control MDCK-Co cells grown on Transwell 3402 cell culture inserts (3.0 μm pore size, 24 mm diameter; Costar, Corning, NY) were performed as described previously. The number of cells per well was 0.5 x 10^6 in all experiments, and the cells were incubated for 3 days to confluence in standard cultivation medium MEM (Gibco) + 10% FBS. After 3 days’ cultivation, medium was removed from both sides and the cells of the monolayer were washed using pre-warmed PBS. […] The pH of the medium on the basolateral side was 7.4, while that on the apical side was set to 6.0 (adjusted by adding HCl or NaOH, when necessary) to ensure optimal MATE1 transport activity. Cells were incubated at 37°C in 5% CO2 for 2 hours. At the end of the incubation period, 50 μl aliquots were sampled and the rest of the medium was immediately removed. The cells were then washed twice with ice-cold PBS, the membranes supporting cellular monolayers were excised, and the cells were dissolved in a 0.02% SDS solution. The radioactivity of the collected samples and lysed monolayers was measured by liquid scintillation counting (Tri-Carb 2910 TR Perkin Elmer), and the protein concentration of the cell lysates was quantified using the BCA protein assay. Transport rates were recorded in pmol per mg protein in the cellular monolayer.

[7] = test system: OCT1; parameters: method as in PMID 25914645; details: OCT1-overexpressing KCL2 cells, 50 μM efavirenz; cited from earlier work
[8] = test system: OCT2 and MATE1; assay: Transcellular transport assay across doubly transfected MDCK-OCT2-MATE1 monolayers; assay type: cell-based, human; details: 10 μM efavirenz, 2 h
Protocol: as §3

T2 sequence (Q96FL8 whole entry): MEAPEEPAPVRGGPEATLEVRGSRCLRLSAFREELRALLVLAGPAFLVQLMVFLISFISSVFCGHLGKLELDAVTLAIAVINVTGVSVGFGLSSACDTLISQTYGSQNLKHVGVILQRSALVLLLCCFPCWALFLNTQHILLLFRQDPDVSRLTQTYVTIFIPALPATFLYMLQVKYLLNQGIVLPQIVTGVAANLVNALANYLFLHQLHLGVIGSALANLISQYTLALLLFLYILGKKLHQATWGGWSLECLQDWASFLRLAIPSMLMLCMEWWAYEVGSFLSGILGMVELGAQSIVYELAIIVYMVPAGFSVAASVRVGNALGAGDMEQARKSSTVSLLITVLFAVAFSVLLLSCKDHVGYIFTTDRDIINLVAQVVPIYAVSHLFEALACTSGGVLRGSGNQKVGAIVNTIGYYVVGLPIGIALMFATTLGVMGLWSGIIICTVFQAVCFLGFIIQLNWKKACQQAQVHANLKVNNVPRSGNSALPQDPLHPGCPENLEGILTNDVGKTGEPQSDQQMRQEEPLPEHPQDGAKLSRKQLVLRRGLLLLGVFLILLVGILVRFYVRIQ

O=C1Nc2ccc(Cl)cc2[C@@](C#CC2CC2)(C(F)(F)F)O1 [efavirenz, Efavirenz]
Effect on lamivudine AUC [1]: no effect | Effect on lamivudine Cmax [1]: no effect | Increase of lamivudine Cmin [1]: 265% | 50x the unbound concentration of efavirenz in elimination organs [2]: around 2.7 μM | IC50 [3]: 5.66 µM | IC50 [4]: 3.85 µM | Inhibition of calcein efflux from parental MDCK cells [5]: not | Effect on basolateral-to-apical transport of [3H]-MPP+ ([6]; 2 nM MPP+, MDCK-OCT2): Inhibition | Effect on intracellular accumulation of [3H]-MPP+ ([6]; 2 nM MPP+, MDCK-OCT2 monolayers): significantly reduced | Effect on intracellular accumulation of [3H]-lamivudine ([6]; 10 nM lamivudine, MDCK-OCT2): significantly reduced | Effect on transcellular transport of [3H]-lamivudine ([6]; 10 nM lamivudine, basal to apical, MDCK-OCT2): significantly inhibited | Reduction in tetraethylammonium accumulation [7]: 50.0% | Effect on basolateral-to-apical transport of [3H]-MPP+ ([8]; 2 nM MPP+, MDCK-OCT2-MATE1): Inhibition | Effect on intracellular accumulation of [3H]-MPP+ ([8]; 2 nM MPP+, MDCK-OCT2-MATE1 monolayers): unaffected | Effect on intracellular accumulation of [3H]-lamivudine ([8]; 10 nM lamivudine, OCT2-MATE1 cells): remained unaffected | Effect on transcellular transport of [3H]-lamivudine ([8]; 10 nM lamivudine, basal to apical, MDCK-OCT2-MATE1): significantly inhibited
